Test results: ChEMBL document CHEMBL4837229 (Eur J Med Chem, 2021)

Target: Neuraminidase (Influenza A virus (strain A/USSR/90/1977 H1N1), UniProt P03469, H274Y)
Assay: Inhibition of Influenza A virus (A/California/04/2009 (H1N1)) Neuraminidase H274Y mutant using MUNANA as substrate preincubated for 5 to 15 mins followed by substrate addition and measured after 30 mins by fluorescence spectrophotometric method

Row | Structure (SMILES) | IC50 [nM]
1 | CCCNNC(=O)N[C@H]1CC(C(=O)O)=C[C@@H](OC(CC)CC)[C@@H]1NC(C)=O | 384
2 | CCC(CC)O[C@@H]1C=C(C(=O)O)C[C@H](NC(N)=O)[C@H]1NC(C)=O | 667
3 | CCC(CC)O[C@@H]1C=C(C(=O)O)C[C@H](NC(=O)NNC)[C@H]1NC(C)=O | 118
4 | CCC(CC)O[C@@H]1C=C(C(=O)O)C[C@H](NC(=O)NN)[C@H]1NC(C)=O | 133
5 | CCCCNNC(=O)N[C@H]1CC(C(=O)O)=C[C@@H](OC(CC)CC)[C@@H]1NC(C)=O | 147
